Test results published in PubChem BioAssay (NCI).
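All cell lines were grown in 96-well plates and treated with compound for 48 hours. TGI: total growth inhibition.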

Assays:
Experiment in all cases: NCI anticancer screen, dose series, 48 h
[1] = system: COLO 205 colon
[2] = system: DLD-1 colon
[3] = system: LXFL 529 NSCLC
[4] = system: M19-MEL melanoma
[5] = system: KM12 colon
[6] = system: CCRF-CEM leukemia
[7] = system: HOP-18 NSCLC
[8] = system: DMS 273 small cell lung
[9] = system: K-562 leukemia
[10] = system: HCT-116 colon
[11] = system: SK-MEL-2 melanoma
[12] = system: RPMI-8226 leukemia
[13] = system: UACC-257 melanoma
[14] = system: HOP-62 NSCLC
[15] = system: HT29 colon
[16] = system: SNB-19 CNS
[17] = system: NCI-H460 lung
[18] = system: RXF 393 renal
[19] = system: ACHN renal
[20] = system: EKVX NSCLC
[21] = system: M14 melanoma
[22] = system: OVCAR-5 ovarian
[23] = system: 786-0 renal
[24] = system: OVCAR-8 ovarian
[25] = system: SNB-75 CNS
[26] = system: SF-295 CNS
[27] = system: U251 CNS
[28] = system: SK-MEL-5 melanoma
[29] = system: MALME-3M melanoma
[30] = system: NCI-H226 lung
[31] = system: SF-539 CNS
[32] = system: NCI-H522 lung
[33] = system: SN12C renal
[34] = system: SW-620 colon
[35] = system: HCT-15 colon
[36] = system: SF-268 CNS
[37] = system: KM20L2 colon
[38] = system: SK-OV-3 ovarian
[39] = system: HCC-2998 colon
[40] = system: NCI-H23 lung
[41] = system: UO-31 renal
[42] = system: A549 NSCLC
[43] = system: A498 renal
[44] = system: MOLT-4 leukemia
[45] = system: OVCAR-4 ovarian
[46] = system: IGROV1 ovarian
[47] = system: UACC-62 melanoma
[48] = system: XF 498 CNS
[49] = system: SNB-78 CNS
[50] = system: HL-60(TB) leukemia
[51] = system: SR leukemia
[52] = system: HOP-92 NSCLC
[53] = system: TK-10 renal
[54] = system: DMS 114 small cell lung
[55] = system: SK-MEL-28 melanoma
[56] = system: OVCAR-3 ovarian
[57] = system: LOX IMVI melanoma
[58] = system: CAKI-1 renal

Compound `CC(=O)OCCOCNC(=S)N/N=C/c1ccc([N+](=O)[O-])s1` has a TGI [1] of 4.61 µM, a TGI [2] of over 100 µM and a TGI [3] of over 100 µM. The TGI [4] was 34.1 µM, the TGI [5] was over 100 µM and the TGI [6] was over 100 µM. For the same compound, the TGI [7] was over 100 µM, the TGI [8] was 85.2 µM and the TGI [9] was over 100 µM. For the same compound, the TGI [10] was 54 µM, the TGI [11] was over 100 µM and the TGI [12] was over 100 µM. For the same compound, the TGI [13] was 66.7 µM, the TGI [14] was over 100 µM and the TGI [15] was over 100 µM. For the same compound, the TGI [16] was over 100 µM, the TGI [17] was over 100 µM and the TGI [18] was over 100 µM. For the same compound, the TGI [19] was over 100 µM, the TGI [20] was over 100 µM and the TGI [21] was over 100 µM. The TGI [22] was over 100 µM, the TGI [23] was over 100 µM and the TGI [24] was over 100 µM. For the same compound, the TGI [25] was over 100 µM, the TGI [26] was over 100 µM and the TGI [27] was over 100 µM. It also gave a TGI [28] of 81.7 µM, a TGI [29] of over 100 µM and a TGI [30] of over 100 µM. The TGI [31] was over 100 µM, the TGI [32] was 24.5 µM and the TGI [33] was over 100 µM. The TGI [34] was over 100 µM, the TGI [35] was over 100 µM and the TGI [36] was over 100 µM. For the same compound, the TGI [37] was over 100 µM, the TGI [38] was over 100 µM and the TGI [39] was over 100 µM. The TGI [40] was 43.1 µM, the TGI [41] was over 100 µM and the TGI [42] was over 100 µM. For the same compound, the TGI [43] was over 100 µM, the TGI [44] was over 100 µM and the TGI [45] was over 100 µM. It also gave a TGI [46] of over 100 µM, a TGI [47] of over 100 µM and a TGI [48] of over 100 µM. It also gave a TGI [49] of over 100 µM, a TGI [50] of 11.5 µM and a TGI [51] of over 100 µM. The TGI [52] was over 100 µM, the TGI [53] was over 100 µM and the TGI [54] was 26.4 µM. The TGI [55] was over 100 µM, the TGI [56] was over 100 µM and the TGI [57] was over 100 µM.

`NC(=O)c1cn(Cc2ccccc2)c(=O)n1Cc1ccccc1` showed a TGI [1] of over 100 µM, a TGI [2] of over 100 µM and a TGI [3] of over 100 µM. It also gave a TGI [4] of over 100 µM, a TGI [5] of over 100 µM and a TGI [6] of over 100 µM. It also gave a TGI [7] of over 100 µM, a TGI [8] of over 100 µM and a TGI [9] of over 100 µM. For the same compound, the TGI [10] was over 100 µM, the TGI [11] was over 100 µM and the TGI [12] was over 100 µM. The TGI [13] was over 100 µM, the TGI [14] was over 100 µM and the TGI [15] was over 100 µM. It also gave a TGI [16] of over 100 µM, a TGI [17] of over 100 µM and a TGI [18] of over 100 µM. For the same compound, the TGI [19] was over 100 µM, the TGI [20] was over 100 µM and the TGI [21] was over 100 µM. For the same compound, the TGI [22] was over 100 µM, the TGI [23] was over 100 µM and the TGI [24] was over 100 µM. It also gave a TGI [25] of over 100 µM, a TGI [26] of over 100 µM and a TGI [27] of over 100 µM. The TGI [28] was over 100 µM, the TGI [30] was over 100 µM and the TGI [31] was over 100 µM. The TGI [32] was over 100 µM, the TGI [33] was over 100 µM and the TGI [34] was over 100 µM. For the same compound, the TGI [35] was over 100 µM, the TGI [36] was over 100 µM and the TGI [37] was over 100 µM. For the same compound, the TGI [38] was over 100 µM, the TGI [39] was over 100 µM and the TGI [40] was over 100 µM. The TGI [41] was over 100 µM, the TGI [58] was over 100 µM and the TGI [42] was over 100 µM. It also gave a TGI [43] of over 100 µM, a TGI [44] of over 100 µM and a TGI [45] of over 100 µM. It also gave a TGI [46] of over 100 µM, a TGI [47] of over 100 µM and a TGI [48] of over 100 µM. For the same compound, the TGI [49] was over 100 µM, the TGI [50] was over 100 µM and the TGI [52] was over 100 µM. It also gave a TGI [53] of over 100 µM, a TGI [55] of over 100 µM and a TGI [56] of over 100 µM. It also gave a TGI [57] of over 100 µM.

For `Cc1ccc(C)c(N2C(=O)C(=O)C(c3nc4ccccc4o3)/C(=N/N)C2=O)c1` (stereo unspecified), the TGI [1] was over 100 µM, the TGI [2] was over 100 µM and the TGI [3] was over 100 µM. The TGI [4] was over 100 µM, the TGI [5] was over 100 µM and the TGI [6] was over 100 µM. For the same compound, the TGI [7] was over 100 µM, the TGI [8] was over 100 µM and the TGI [10] was over 100 µM. The TGI [11] was over 100 µM, the TGI [13] was over 100 µM and the TGI [14] was over 100 µM. The TGI [15] was over 100 µM, the TGI [16] was over 100 µM and the TGI [17] was over 100 µM. The TGI [18] was over 100 µM, the TGI [19] was over 100 µM and the TGI [20] was over 100 µM. It also gave a TGI [21] of over 100 µM, a TGI [23] of over 100 µM and a TGI [24] of over 100 µM. The TGI [25] was over 100 µM, the TGI [26] was over 100 µM and the TGI [27] was over 100 µM. It also gave a TGI [28] of over 100 µM, a TGI [29] of over 100 µM and a TGI [30] of over 100 µM. It also gave a TGI [31] of over 100 µM, a TGI [32] of over 100 µM and a TGI [33] of over 100 µM. For the same compound, the TGI [34] was over 100 µM, the TGI [35] was over 100 µM and the TGI [36] was over 100 µM. For the same compound, the TGI [37] was over 100 µM, the TGI [38] was over 100 µM and the TGI [39] was over 100 µM. It also gave a TGI [40] of over 100 µM, a TGI [41] of over 100 µM and a TGI [58] of over 100 µM. The TGI [42] was over 100 µM, the TGI [43] was over 100 µM and the TGI [44] was over 100 µM. It also gave a TGI [45] of over 100 µM, a TGI [46] of over 100 µM and a TGI [47] of over 100 µM. For the same compound, the TGI [48] was over 100 µM, the TGI [49] was over 100 µM and the TGI [50] was over 100 µM. For the same compound, the TGI [51] was over 100 µM, the TGI [52] was over 100 µM and the TGI [53] was over 100 µM. It also gave a TGI [54] of over 100 µM, a TGI [55] of over 100 µM and a TGI [56] of over 100 µM.

With `C[n+]1c2ccccc2c(NC(CCCN=C(N)N)C(=O)O)c2ccccc21` (stereo unspecified) the TGI [1] was over 100 µM, the TGI [2] was over 100 µM and the TGI [3] was over 100 µM. The TGI [4] was over 100 µM, the TGI [5] was over 100 µM and the TGI [7] was over 100 µM. The TGI [8] was over 100 µM, the TGI [9] was over 100 µM and the TGI [10] was over 100 µM. It also gave a TGI [11] of over 100 µM, a TGI [12] of over 100 µM and a TGI [13] of over 100 µM. It also gave a TGI [14] of over 100 µM, a TGI [15] of over 100 µM and a TGI [16] of over 100 µM. The TGI [17] was over 100 µM, the TGI [18] was over 100 µM and the TGI [19] was over 100 µM. It also gave a TGI [20] of over 100 µM, a TGI [21] of over 100 µM and a TGI [22] of over 100 µM. It also gave a TGI [23] of over 100 µM, a TGI [24] of over 100 µM and a TGI [25] of over 100 µM. It also gave a TGI [26] of over 100 µM, a TGI [27] of over 100 µM and a TGI [28] of over 100 µM. For the same compound, the TGI [29] was over 100 µM, the TGI [30] was over 100 µM and the TGI [31] was over 100 µM. It also gave a TGI [32] of over 100 µM, a TGI [33] of over 100 µM and a TGI [34] of over 100 µM. It also gave a TGI [35] of over 100 µM, a TGI [36] of over 100 µM and a TGI [37] of over 100 µM. For the same compound, the TGI [38] was over 100 µM, the TGI [39] was over 100 µM and the TGI [40] was over 100 µM. The TGI [41] was over 100 µM, the TGI [58] was over 100 µM and the TGI [42] was over 100 µM. For the same compound, the TGI [43] was over 100 µM, the TGI [44] was over 100 µM and the TGI [45] was over 100 µM. For the same compound, the TGI [46] was over 100 µM, the TGI [47] was over 100 µM and the TGI [48] was over 100 µM. For the same compound, the TGI [49] was over 100 µM, the TGI [50] was over 100 µM and the TGI [51] was over 100 µM. The TGI [52] was over 100 µM, the TGI [53] was over 100 µM and the TGI [54] was over 100 µM. The TGI [56] was over 100 µM.
